From patent US20260265244A1, “HETEROCYCLIC COMPOUNDS AS STING ANTAGONISTS” (Boehringer Ingelheim International GmbH, priority 2022, published 2026)

Columns and labels:
human STING WT (R232) = molecular target: T1, human STING WT (R232) (Homo sapiens, UniProt Q86WV6, H232R); assay: Human STING HTRF binding assay (competitive, Cisbio 64BDSTGPEG)
T1 construct: purchased Cisbio 64BDSTGPEG
Summary of the method: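 Competitive HTRF: 6His-tagged human STING WT R232 binding domain (residues 138-379) with anti-6His Cryptate antibody and d2-labeled STING ligand, 180 min at room temperature, 1% DMSO, 8 concentrations from 10 μM or 1 μM top in ~1:5 steps. HTRF ratios were calibrated to a cGAMP standard curve and IC50 obtained by 4-parameter logistic fit.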

[1] = tested on: STING inhibition in human whole blood (IFNα2α production); assay: Human whole blood assay (HWBA): cGAMP-stimulated IFNα2α production; type: cell-based; conditions: Homo sapiens
Summary of the method: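 Na-citrate human whole blood from ≥3 healthy donors, preincubated 60 min at room temperature with compound (8 concentrations, top 10 μM, ~1:5 steps, 0.1% DMSO), then stimulated with cGAMP and incubated 22 h at 37 °C. Plasma IFNα2α measured by MSD immunoassay; % control versus stimulated/unstimulated wells, IC50 by 4-parameter logistic fit.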

T1 sequence (Q86WV6 138-379 H232R): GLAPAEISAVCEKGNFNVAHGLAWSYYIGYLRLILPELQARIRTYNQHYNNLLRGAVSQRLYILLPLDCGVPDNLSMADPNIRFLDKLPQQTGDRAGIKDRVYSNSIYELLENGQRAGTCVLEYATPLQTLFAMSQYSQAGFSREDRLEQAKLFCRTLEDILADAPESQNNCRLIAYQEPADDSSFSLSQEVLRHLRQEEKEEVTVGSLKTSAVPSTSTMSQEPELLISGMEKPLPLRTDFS

IC50 (human STING WT (R232)) [nM] | IC50 [1] [nM] | Structure (SMILES)
28.6 | 190 | Cc1c(C(C)C)c(-c2cccc3nn(C[C@H](O)c4ccccc4)cc23)nn1-c1cc2cn(C)nc2nc1C1CCC1 [Example 53, (1R)-2-[4-(1-{6-cyclobutyl-2-methyl-2H-pyrazolo[3,4-b]pyridin-5-yl}-5-methyl-4-(propan-2-yl)-1H-pyrazol-3-yl)-2H-indazol-2-yl]-1-phenylethan-1-ol]
86.9 | 200 | Cc1c(C(C)C)c(-c2cccc3nn(C[C@H](O)c4ccccc4)cc23)nn1-c1cc2cn(C)nc2nc1CC1CC1 [Example 54, (1R)-2-(4-{1-[6-(cyclopropylmethyl)-2-methyl-2H-pyrazolo[3,4-b]pyridin-5-yl]-5-methyl-4-(propan-2-yl)-1H-pyrazol-3-yl}-2H-indazol-2-yl)-1-phenylethan-1-ol]
3.7 | 200 | Cn1cc2cc(-c3nc(-c4cccc5nn(C[C@H](O)c6ccc(O)cc6)cc45)c(C4CC4)n3C)c(C3CC3)nc2n1 [Example 55, 4-[(1R)-2-[4-(5-cyclopropyl-2-{6-cyclopropyl-2-methyl-2H-pyrazolo[3,4-b]pyridin-5-yl}-1-methyl-1H-imidazol-4-yl)-2H-indazol-2-yl]-1-hydroxyethyl]phenol]
18.1 | 210 | Cc1nc2nn(CC3CC3)cc2cc1-n1nc(-c2cccc3nn(C[C@H](O)c4ccccc4)cc23)c(C(C)C)c1C [Example 56, (1R)-2-(4-{1-[2-(cyclopropylmethyl)-6-methyl-2H-pyrazolo[3,4-b]pyridin-5-yl]-5-methyl-4-(propan-2-yl)-1H-pyrazol-3-yl}-2H-indazol-2-yl)-1-phenylethan-1-ol]
24.9 | 230 | CC(C)c1c(-c2cccc3nn(C[C@H](O)c4ccccc4)cc23)nc(-c2cc3cn(C)nc3nc2C(F)(F)F)n1C [Example 57, (1R)-2-(4-{1-methyl-2-[2-methyl-6-(trifluoromethyl)-2H-pyrazolo[3,4-b]pyridin-5-yl]-5-(propan-2-yl)-1H-imidazol-4-yl}-2H-indazol-2-yl)-1-phenylethan-1-ol]
15.8 | 230 | COC(C)c1nc2nn(C)cc2cc1-n1nc(-c2cccc3nn(C[C@H](O)c4ccccc4)cc23)c(C(C)C)c1C (stereo partly drawn) [Example 58, (1R)-2-(4-{1-[6-(1-methoxyethyl)-2-methyl-2H-pyrazolo[3,4-b]pyridin-5-yl]-5-methyl-4-(propan-2-yl)-1H-pyrazol-3-yl}-2H-indazol-2-yl)-1-phenylethan-1-ol]
23.9 | 240 | CCCc1nc2nn(C)cc2cc1-n1nc(-c2cccc3nn(C[C@H](O)c4ccccc4)cc23)c(C(C)C)c1C [Example 60, (1R)-2-[4-(5-methyl-1-{2-methyl-6-propyl-2H-pyrazolo[3,4-b]pyridin-5-yl}-4-(propan-2-yl)-1H-pyrazol-3-yl)-2H-indazol-2-yl]-1-phenylethan-1-ol]
19.1 | 300 | Cc1nc2nn(Cc3ncnn3C)cc2cc1-n1nc(-c2cccc3nn(C[C@H](O)c4ccccc4)cc23)c(C(C)C)c1C [Example 62, (1R)-2-[4-(5-methyl-1-{6-methyl-2-[(1-methyl-1H-1,2,4-triazol-5-yl)methyl]-2H-pyrazolo[3,4-b]pyridin-5-yl}-4-(propan-2-yl)-1H-pyrazol-3-yl)-2H-indazol-2-yl]-1-phenylethan-1-ol]
39.8 | 300 | Cc1nc2nn(C)cc2cc1-n1nc(-c2cccc3nn(C[C@H](OCC4CC4)c4ccccc4)cc23)c(C(C)C)c1C [Example 63, 2-[(2R)-2-(cyclopropylmethoxy)-2-phenylethyl]-4-(1-{2,6-dimethyl-2H-pyrazolo[3,4-b]pyridin-5-yl}-5-methyl-4-(propan-2-yl)-1H-pyrazol-3-yl)-2H-indazole]
7.6 | 300 | Cc1c(C(C)C)c(-c2cccc3nn(C[C@H](O)c4ccccc4)cc23)nn1-c1cc2cn(C)nc2nc1C(F)F [Example 64, (1R)-2-(4-{1-[6-(difluoromethyl)-2-methyl-2H-pyrazolo[3,4-b]pyridin-5-yl]-5-methyl-4-(propan-2-yl)-1H-pyrazol-3-yl}-2H-indazol-2-yl)-1-phenylethan-1-ol]
16.9 | 320 | Cc1nc2nn(C)cc2cc1-n1nc(-c2cccc3nn(CCc4ccc(OCCN(C)C)cc4)cc23)c(C(C)C)c1C [Example 65, [2-(4-{2-[4-(1-{2,6-dimethyl-2H-pyrazolo[3,4-b]pyridin-5-yl}-5-methyl-4-(propan-2-yl)-1H-pyrazol-3-yl)-2H-indazol-2-yl]ethyl}phenoxy)ethyl]dimethylamine]
8 | 320 | Cc1nc2nn(C)cc2cc1-n1nc(-c2cccc3nn(C[C@H](OCCCCO)c4ccccc4)cc23)c(C(C)C)c1C [Example 66, 4-[(1R)-2-[4-(1-{2,6-dimethyl-2H-pyrazolo[3,4-b]pyridin-5-yl}-5-methyl-4-(propan-2-yl)-1H-pyrazol-3-yl)-2H-indazol-2-yl]-1-phenylethoxy]butan-1-ol]
10.8 | 330 | Cc1nc2nn(CC(O)CO)cc2cc1-n1nc(-c2cccc3nn(C[C@H](O)c4ccccc4)cc23)c(C(C)C)c1C (stereo partly drawn) [Example 67, 3-[5-(3-{2-[(2R)-2-hydroxy-2-phenylethyl]-2H-indazol-4-yl}-5-methyl-4-(propan-2-yl)-1H-pyrazol-1-yl)-6-methyl-2H-pyrazolo[3,4-b]pyridin-2-yl]propane-1,2-diol]
17.7 | 350 | Cn1cc2cc(-c3nc(-c4cccc5nn(C[C@H](O)c6ccc(OCC7CCOCC7)cc6)cc45)c(C4CC4)n3C)c(C3CC3)nc2n1 [Example 68]
7.5 | 360 | Cn1cc2cc(-c3nc(-c4cccc5nn(C[C@H](O)c6ccc(OC7COC7)cc6)cc45)c(C4CC4)n3C)c(C3CC3)nc2n1 [Example 69, (1R)-2-[4-(5-cyclopropyl-2-{6-cyclopropyl-2-methyl-2H-pyrazolo[3,4-b]pyridin-5-yl}-1-methyl-1H-imidazol-4-yl)-2H-indazol-2-yl]-1-[4-(oxetan-3-yloxy)phenyl]ethan-1-ol]
37.7 | 370 | Cc1nc2nn(CC(O)CN3CCN(C)CC3)cc2cc1-n1nc(-c2cccc3nn(C[C@H](O)c4ccccc4)cc23)c(C(C)C)c1C (stereo partly drawn) [Example 70, 1-[5-(3-{2-[(2R)-2-hydroxy-2-phenylethyl]-2H-indazol-4-yl}-5-methyl-4-(propan-2-yl)-1H-pyrazol-1-yl)-6-methyl-2H-pyrazolo[3,4-b]pyridin-2-yl]-3-(4-methylpiperazin-1-yl)propan-2-ol]
17.6 | 400 | CCc1nc2nn(C)cc2cc1-c1nc(-c2cccc3nn(C[C@H](F)c4ccc(Cl)cc4)cc23)c(C2CC2)n1C [Example 72, 2-[(2R)-2-(4-chlorophenyl)-2-fluoroethyl]-4-(5-cyclopropyl-2-{6-ethyl-2-methyl-2H-pyrazolo[3,4-b]pyridin-5-yl}-1-methyl-1H-imidazol-4-yl)-2H-indazole]
11.4 | 440 | Cc1c(C(C)C)c(-c2cccc3nn(C[C@H](O)c4ccccc4)cc23)nn1-c1cc2cn(C)nc2nc1C1CCOCC1 [Example 73, (1R)-2-(4-{5-methyl-1-[2-methyl-6-(oxan-4-yl)-2H-pyrazolo[3,4-b]pyridin-5-yl]-4-(propan-2-yl)-1H-pyrazol-3-yl}-2H-indazol-2-yl)-1-phenylethan-1-ol]
34 | 2900 | CC(C)c1nc2nn(C)cc2cc1-c1nc(-c2cccc3nn(CS(=O)(=O)c4ccccc4)cc23)c(C2CC2)n1C [Example 96, 2-[(Benzenesulfonyl)methyl]-4-{5-cyclopropyl-1-methyl-2-[2-methyl-6-(propan-2-yl)-2H-pyrazolo[3,4-b]pyridin-5-yl]-1H-imidazol-4-yl}-2H-indazole]
3.4 | 52 | CC(C)c1nc2nn(C)cc2cc1-c1nc(-c2cccc3nn(C[C@H](O)c4ccccc4)cc23)c(C2CC2)n1C [Example 97, (1R)-2-(4-{5-Cyclopropyl-1-methyl-2-[2-methyl-6-(propan-2-yl)-2H-pyrazolo[3,4-b]pyridin-5-yl]-1H-imidazol-4-yl}-2H-indazol-2-yl)-1-phenylethan-1-ol]
3.1 | 31 | Cc1nc2nn(CC#N)cc2cc1-n1nc(-c2cccc3nn(C[C@H](O)c4ccccc4)cc23)c(C(C)C)c1C [Example 98, 2-[5-(3-{2-[(2R)-2-hydroxy-2-phenylethyl]-2H-indazol-4-yl}-5-methyl-4-(propan-2-yl)-1H-pyrazol-1-yl)-6-methyl-2H-pyrazolo[3,4-b]pyridin-2-yl]acetonitrile]
6.9 | 37 | CCn1cc2cc(-n3nc(-c4cccc5nn(C[C@H](O)c6ccccc6)cc45)c(C(C)C)c3C)c(C)nc2n1 [Example 100, (1R)-2-[4-(1-{2-ethyl-6-methyl-2H-pyrazolo[3,4-b]pyridin-5-yl}-5-methyl-4-(propan-2-yl)-1H-pyrazol-3-yl)-2H-indazol-2-yl]-1-phenylethan-1-ol]
10.6 | 39 | Cc1c(C(C)C)c(-c2cccc3nn(C[C@H](O)c4ccc(OCCN(C)C)cc4)cc23)nn1-c1cc2cn(C)nc2nc1C1CC1 [Example 101]
3.6 | 40 | Cc1nc2nn(C)cc2cc1-n1nc(-c2cccc3nn(C[C@H](O)c4ccccc4)cc23)c(C(C)C)c1C [Example 102, (1R)-2-[4-(1-{2,6-Dimethyl-2H-pyrazolo[3,4-b]pyridin-5-yl}-5-methyl-4-(propan-2-yl)-1H-pyrazol-3-yl)-2H-indazol-2-yl]-1-phenylethan-1-ol]
